{
  "source": "paper PMC10936414",
  "about": "(mBio, 2024)",
  "key": {"VSV-SARS-CoV-2 [1]": {"test_system": "VSV-SARS-CoV-2", "assay": "organism not typed", "assay_type": "cell-based"}, "VSV [2]": {"test_system": "VSV", "assay": "microbe, parasite or virus in culture", "assay_type": "cell-based"}, "VSV [3]": {"test_system": "VSV", "conditions": "ref [12]; cited from earlier work"}, "MA104 cells": {"test_system": "MA104 cells", "conditions": "treated 25 h, WST-8"}, "VSV-SARS-CoV-2 [4]": {"test_system": "VSV-SARS-CoV-2", "assay_type": "cell-based", "conditions": "MA104, MOI of 3, 24 hpi"}, "SARS-CoV": {"test_system": "SARS-CoV", "conditions": "ref [6]; cited from earlier work"}, "SARS-CoV-2-mNeonGreen": {"test_system": "SARS-CoV-2-mNeonGreen", "assay": "SARS-CoV-2-mNeonGreen infection of Vero E6 cells", "assay_type": "cell-based"}, "VSV-SARS-CoV-2 [5]": {"test_system": "VSV-SARS-CoV-2", "assay": "organism not typed", "assay_type": "cell-based", "remark": "listed apart in the source"}, "SARS-CoV-2": {"test_system": "SARS-CoV-2", "conditions": "ref [4], [7]; cited from earlier work"}, "in vitro": {"assay": "in vitro", "conditions": "African green monkey"}, "[6]": {"conditions": "MA104, read-out: EC50 against VSV-SARS-CoV-2, MA104 cells, pre-treated 1 h, 24 h infection, MOI = 1, GFP signal"}, "[7]": {"conditions": "Vesicular stomatitis virus, MA104, read-out: EC50 against VSV"}, "[8]": {"conditions": "MA104, read-out: EC50 against VSV-SARS-CoV-2 (Fig. S1), MA104 cells, treated 1 h prior, MOI of 0.5, 24 hpi"}},
  "note": "Read-outs that look alike come from different tables or passages of the source. Residues, ends and D or L forms follow the SMILES beside them. *: point of attachment. Cbz = O=C(OCc1ccccc1)*",
  "data": [
    {"smiles": "C[C@H]1CCC/C=C/[C@@H]2C[C@H](O)C[C@H]2[C@H](O)/C=C/C(=O)O1", "note": "[Brefeldin A, brefeldin A]", "values": [
      {"measurement": "EC50", "setting": "VSV-SARS-CoV-2 [1]; read-out: EC50 against VSV-SARS-CoV-2, MA104 cells, pre-treated 1 h, 24 h infection, MOI = 1, GFP signal", "result": "< 2", "unit": "µM"}
    ]},
    {"smiles": "O=C(O)/C=C/c1ccc(O)c(O)c1", "note": "[Caffeic Acid, caffeic acid]", "values": [
      {"measurement": "EC50", "setting": "VSV-SARS-CoV-2 [1]; [6]", "result": 4.66, "unit": "µM"},
      {"measurement": "EC50", "setting": "VSV [2]; [7]", "result": 6.7, "unit": "µM"}
    ]},
    {"smiles": "C/C=C/[C@H]1O[C@@](O)([C@@H](C)[C@H](O)[C@H](C)[C@H]2OC(=O)/C(OC)=C/C(C)=C/[C@@H](C)[C@@H](O)[C@@H](CC)[C@@H](O)[C@H](C)C/C(C)=C/C=C/[C@@H]2OC)C[C@@H](O[C@H]2C[C@@H](O)[C@H](OC(N)=O)[C@@H](C)O2)[C@@H]1C", "note": "[Concanamycin A, concanamycin A]", "values": [
      {"measurement": "EC50", "setting": "VSV-SARS-CoV-2 [1]; [6]", "result": "< 0.01", "unit": "µM"},
      {"measurement": "EC50", "setting": "VSV [2]; [7]", "result": 5.55, "unit": "µM"}
    ]},
    {"smiles": "CCOC(=O)[C@H]1O[C@@H]1C(=O)N[C@@H](CC(C)C)C(=O)NCCC(C)C", "note": "[E-64d]", "values": [
      {"measurement": "sensitivity of VSV to treatment (in words)", "setting": "VSV [3]", "result": "not be sensitive to E-64d treatment"},
      {"measurement": "CC50", "setting": "MA104 cells", "result": "> 300", "unit": "µM"}
    ]},
    {"smiles": "CCCCCCCCc1ccc(CCC(N)(CO)CO)cc1", "note": "[FTY720]", "values": [
      {"measurement": "EC50", "setting": "VSV-SARS-CoV-2 [1]; [6]", "result": 5.17, "unit": "µM"},
      {"measurement": "EC50", "setting": "VSV [2]; [7]", "result": 16.5, "unit": "µM"}
    ]},
    {"smiles": "CC(C)Cn1c(=O)n(C)c(=O)c2[nH]cnc21", "note": "[IBMX, 3-isobutyl-1-methylxanthine]", "values": [
      {"measurement": "EC50", "setting": "VSV-SARS-CoV-2 [1]; [6]", "result": "< 2", "unit": "µM"},
      {"measurement": "EC50", "setting": "VSV [2]; [7]", "result": "< 2", "unit": "µM"}
    ]},
    {"smiles": "Clc1ccc(N/N=C(\\c2ccccc2)c2ccccn2)nc1", "note": "[JIB-04]", "values": [
      {"measurement": "percentage of inhibition", "setting": "VSV-SARS-CoV-2 [4]; JIB-04 0.3 µM, NTZ 0 µM", "result": 21, "unit": "%"},
      {"measurement": "percentage of inhibition", "setting": "VSV-SARS-CoV-2 [4]; JIB-04 1 µM, NTZ 0 µM", "result": 50, "unit": "%"},
      {"measurement": "percentage of inhibition", "setting": "VSV-SARS-CoV-2 [4]; JIB-04 3 µM, NTZ 0 µM", "result": 73, "unit": "%"},
      {"measurement": "percentage of inhibition", "setting": "VSV-SARS-CoV-2 [4]; JIB-04 10 µM, NTZ 0 µM", "result": 90, "unit": "%"}
    ]},
    {"smiles": "CC(=O)N1CCN(c2ccc(OCC3COC(Cn4ccnc4)(c4ccc(Cl)cc4Cl)O3)cc2)CC1", "note": "(stereo not shown) [Ketoconazole, ketoconazole]", "values": [
      {"measurement": "EC50", "setting": "VSV-SARS-CoV-2 [1]; [6]", "result": 30.1, "unit": "µM"},
      {"measurement": "EC50", "setting": "VSV [2]; [7]", "result": "> 100", "unit": "µM"}
    ]},
    {"smiles": "CC(C)C[C@@H](C=O)NC(=O)[C@H](CC(C)C)NC(=O)[C@H](CC(C)C)NC(=O)OCc1ccccc1", "note": "[MG132] (Cbz-Leu-Leu-Leu-aldehyde)", "values": [
      {"measurement": "EC50", "setting": "VSV-SARS-CoV-2 [1]; [6]", "result": 0.64, "unit": "µM"},
      {"measurement": "selectivity in antiviral activities, VSV EC50 compared to VSV-SARS-CoV-2 EC50", "setting": "VSV-SARS-CoV-2 [1]; MA104 cells", "result": 100, "unit": "fold"},
      {"measurement": "SARS-CoV replication (in words)", "setting": "SARS-CoV", "result": "impair SARS-CoV replication"}
    ]},
    {"smiles": "CC(=O)Oc1ccccc1C(=O)Nc1ncc([N+](=O)[O-])s1", "note": "[Nitazoxanide, nitazoxanide]", "values": [
      {"measurement": "EC50", "setting": "VSV-SARS-CoV-2 [1]; [8]", "result": 5.82, "unit": "µM"},
      {"measurement": "EC50", "setting": "VSV-SARS-CoV-2 [1]; [6]", "result": 10.5, "unit": "µM"},
      {"measurement": "SI (selectivity index)", "setting": "VSV-SARS-CoV-2 [1]; VSV-SARS-CoV-2, MA104 cells", "result": 237},
      {"measurement": "SI (selectivity index)", "setting": "SARS-CoV-2-mNeonGreen; SARS-CoV-2-mNeonGreen, Vero E6 cells", "result": 167},
      {"measurement": "EC50", "setting": "SARS-CoV-2-mNeonGreen; Severe acute respiratory syndrome coronavirus 2, Vero C1008, read-out: EC50 against SARS-CoV-2-mNeonGreen", "result": 4.9, "unit": "µM"},
      {"measurement": "EC50", "setting": "VSV [2]; [7]", "result": 16.3, "unit": "µM"},
      {"measurement": "percentage of inhibition", "setting": "VSV-SARS-CoV-2 [4]; JIB-04 0 µM, NTZ 1 µM", "result": 16, "unit": "%"},
      {"measurement": "percentage of inhibition", "setting": "VSV-SARS-CoV-2 [4]; JIB-04 0 µM, NTZ 3 µM", "result": 24, "unit": "%"},
      {"measurement": "percentage of inhibition", "setting": "VSV-SARS-CoV-2 [4]; JIB-04 0 µM, NTZ 10 µM", "result": 42, "unit": "%"},
      {"measurement": "percentage of inhibition", "setting": "VSV-SARS-CoV-2 [4]; JIB-04 0 µM, NTZ 30 µM", "result": 92, "unit": "%"}
    ]},
    {"smiles": "COc1ccc2cc1Oc1ccc(cc1)C[C@H]1c3cc(c(OC)cc3CCN1C)Oc1c(OC)c(OC)cc3c1[C@H](C2)N(C)CC3", "note": "[Tetrandrine, tetrandrine]", "values": [
      {"measurement": "EC50", "setting": "VSV-SARS-CoV-2 [1]; [6]", "result": 1.23, "unit": "µM"},
      {"measurement": "EC50", "setting": "VSV [2]; [7]", "result": 23.2, "unit": "µM"}
    ]},
    {"smiles": "C/C=C(/C)C(=O)O[C@H]1C(C)=C2[C@H]([C@@H]1OC(=O)CCCCCCC)[C@@](C)(OC(C)=O)C[C@H](OC(=O)CCC)[C@@]1(O)[C@H]2OC(=O)[C@@]1(C)O", "note": "[Thapsigargin, thapsigargin]", "values": [
      {"measurement": "EC50", "setting": "VSV-SARS-CoV-2 [1]; [6]", "result": 0.22, "unit": "µM"},
      {"measurement": "EC50", "setting": "VSV [2]; [7]", "result": 4.08, "unit": "µM"}
    ]},
    {"smiles": "CC(C)[C@H](NC(=O)OCc1ccccc1)C(=O)N[C@H](C=O)Cc1ccccc1", "note": "[calpain inhibitor III] (Cbz-Val-Phe-aldehyde)", "values": [
      {"measurement": "selectivity in antiviral activities, VSV EC50 compared to VSV-SARS-CoV-2 EC50", "setting": "VSV-SARS-CoV-2 [1]; MA104 cells", "result": "more than 30 fold"},
      {"measurement": "EC50", "setting": "VSV-SARS-CoV-2 [1]; MA104 cells, pre-treated 1 h, 24 h infection, MOI = 1, GFP signal, read-out: EC50 against VSV-SARS-CoV-2", "result": 0.231, "unit": "µM"},
      {"measurement": "EC50", "setting": "VSV [2]; read-out: EC50 against VSV", "result": 10.7, "unit": "µM"},
      {"measurement": "CC50", "setting": "MA104 cells", "result": "> 300", "unit": "µM"},
      {"measurement": "EC50", "setting": "VSV-SARS-CoV-2 [5]; Vero E6 cells, pre-treated 1 h, 24 h infection, read-out: EC50 against VSV-SARS-CoV-2 in Vero E6 cells", "result": "< 0.5", "unit": "µM"}
    ]},
    {"smiles": "CSCC[C@@H](C=O)NC(=O)[C@H](CC(C)C)NC(=O)[C@H](CC(C)C)NC(C)=O", "note": "[calpain inhibitor II] (Ac-Leu-Leu-Met-aldehyde)", "values": [
      {"measurement": "suppression of SARS-CoV-2 replication (in words)", "setting": "SARS-CoV-2", "result": "suppressed SARS-CoV-2 replication"}
    ]},
    {"smiles": "CCCC[C@@H](C=O)NC(=O)[C@H](CC(C)C)NC(=O)OCc1ccccc1", "note": "[calpeptin]", "values": [
      {"measurement": "EC50", "setting": "VSV-SARS-CoV-2 [1]; [6]", "result": 0.208, "unit": "µM"},
      {"measurement": "selectivity in antiviral activities, VSV EC50 compared to VSV-SARS-CoV-2 EC50", "setting": "VSV-SARS-CoV-2 [1]; MA104 cells", "result": "more than 30 fold"},
      {"measurement": "EC50", "setting": "VSV [2]; [7]", "result": 7.43, "unit": "µM"},
      {"measurement": "EC50", "setting": "VSV-SARS-CoV-2 [5]; Vero C1008, read-out: EC50 against VSV-SARS-CoV-2 in Vero E6 cells, Vero E6 cells, pre-treated 1 h, 24 h infection", "result": "< 0.5", "unit": "µM"},
      {"measurement": "CC50", "setting": "in vitro", "result": 300, "unit": "µM"},
      {"measurement": "suppression of SARS-CoV-2 replication (in words)", "setting": "SARS-CoV-2", "result": "suppressed SARS-CoV-2 replication"}
    ]},
    {"smiles": "O=C(/C=C/c1ccc(O)c(O)c1)O[C@H](Cc1ccc(O)c(O)c1)C(=O)O", "note": "[rosmarinic acid]", "values": [
      {"measurement": "EC50", "setting": "VSV-SARS-CoV-2 [1]; [8]", "result": "> 100", "unit": "µM"},
      {"measurement": "inhibition of VSV-SARS-CoV-2 infection (in words)", "setting": "VSV-SARS-CoV-2 [1]; MA104 cells", "result": "did not inhibit VSV-SARS-CoV-2 infection"},
      {"measurement": "CC50", "setting": "in vitro", "result": "> 300", "unit": "µM"}
    ]}
  ]
}
